Measured values published in ChEMBL document CHEMBL1201862, “PubChem BioAssay data set” (2004).
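Cells were grown in 96-well plates and exposed to each compound for 48 hours at five concentrations; endpoints were interpolated linearly between bracketing concentrations, or set to the highest concentration if not reached. GI50 marks 50% less growth.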 The source made the active and inactive calls. No stated cut-off is given here; in the data, active = GI50 up to about 1.1 µM and inactive = higher.

Experiments:
Experiment in all cases: NCI-60 cell line screen, 48 h
CCRF-CEM = system: CCRF-CEM
HL-60 = system: HL-60
HOP-62 = system: HOP-62
HOP-92 = system: HOP-92
IGROV-1 = system: IGROV-1
LOX IMVI = system: LOX IMVI
M14 = system: M14
MDA-N = system: MDA-N
NCI-H23 = system: NCI-H23
NCI-H522 = system: NCI-H522
NCI/ADR-RES = system: NCI/ADR-RES
RPMI-8226 = system: RPMI-8226
SF-268 = system: SF-268
SK-MEL-28 = system: SK-MEL-28
SNB-19 = system: SNB-19
UO-31 = system: UO-31
NCI-H226 = system: NCI-H226
SF-295 = system: SF-295
A498 = system: A498
HCC 2998 = system: HCC 2998

| Structure (SMILES) | GI50 (CCRF-CEM) | GI50 (HL-60) | GI50 (HOP-62) | GI50 (HOP-92) | GI50 (IGROV-1) | GI50 (LOX IMVI) | GI50 (M14) | GI50 (MDA-N) | GI50 (NCI-H23) | GI50 (NCI-H522) | GI50 (NCI/ADR-RES) | GI50 (RPMI-8226) | GI50 (SF-268) | GI50 (SK-MEL-28) | GI50 (SNB-19) | GI50 (UO-31) | GI50 (NCI-H226) | GI50 (SF-295) | GI50 (A498) | GI50 (HCC 2998) |
| --- | --- | --- | --- | --- | --- | --- | --- | --- | --- | --- | --- | --- | --- | --- | --- | --- | --- | --- | --- | --- |
| OCc1cn(Cc2ccccc2)c2ccccc12 | 0.488 µM (active) | 5.9 µM (inactive) | 5.32 µM (inactive) | 5.51 µM (inactive) | < 0.0356 µM (active) | 19.5 µM (inactive) | > 32.6 µM (inactive) | 35.6 µM (inactive) | 14.4 µM (inactive) | 4.65 µM (inactive) | 15.2 µM (inactive) | 2.16 µM (inactive) | 14 µM (inactive) | > 59.3 µM (inactive) | > 64.6 µM (inactive) | > 87.7 µM (inactive) | – | – | – | – |
| C=C1C[C@@H](O)[C@@H](Br)C(C)(C)[C@@]12C=CC(O)(CBr)CC2 (some centres undefined) | 28.1 µM (inactive) | 35.4 µM (inactive) | > 100 µM (inactive) | 13.6 µM (inactive) | 89.3 µM (inactive) | 36.1 µM (inactive) | > 100 µM (inactive) | > 100 µM (inactive) | 94 µM (inactive) | 62.4 µM (inactive) | 0.0191 µM (active) | 24.9 µM (inactive) | 50 µM (inactive) | > 100 µM (inactive) | 88.9 µM (inactive) | > 100 µM (inactive) | > 100 µM (inactive) | > 100 µM (inactive) | – | – |
| N#CC1(C#N)C2C=CC(c3coc4cccc2c34)C1(C#N)C#N (centres undefined) | 1.11 µM (active) | 1.45 µM (inactive) | 22.6 µM (inactive) | 18 µM (inactive) | 18.7 µM (inactive) | 15.2 µM (inactive) | 12.7 µM (inactive) | – | 18.7 µM (inactive) | 1.66 µM (inactive) | – | 4.86 µM (inactive) | 6.27 µM (inactive) | 3.66 µM (inactive) | 18.8 µM (inactive) | 12.8 µM (inactive) | 19 µM (inactive) | 19.9 µM (inactive) | 20.4 µM (inactive) | 15.2 µM (inactive) |
| O=C1C(/C=C/c2ccc(Cl)cc2)=NNC2N1N=C1NC(=O)C3(NN12)c1ccccc1-c1ccccc13 (centres undefined) | 65.6 µM (inactive) | > 100 µM (inactive) | > 100 µM (inactive) | 41.9 µM (inactive) | > 100 µM (inactive) | > 100 µM (inactive) | > 100 µM (inactive) | – | > 100 µM (inactive) | > 100 µM (inactive) | > 100 µM (inactive) | – | > 100 µM (inactive) | > 100 µM (inactive) | > 100 µM (inactive) | 94 µM (inactive) | > 100 µM (inactive) | > 100 µM (inactive) | > 100 µM (inactive) | > 100 µM (inactive) |
| C=CCOC(=O)CC[C@H](NC(=O)[C@@H](CCC(F)(F)F)Cc1ccc(O)cc1)C(=O)OCC=C | – | 85.9 µM (inactive) | > 100 µM (inactive) | 67.1 µM (inactive) | > 100 µM (inactive) | 55.2 µM (inactive) | 21.3 µM (inactive) | 32.7 µM (inactive) | 38.5 µM (inactive) | 24.3 µM (inactive) | > 100 µM (inactive) | 30.4 µM (inactive) | 41 µM (inactive) | 23.7 µM (inactive) | > 100 µM (inactive) | > 100 µM (inactive) | > 100 µM (inactive) | > 100 µM (inactive) | – | – |
| O=C(CN1CCOCC1)c1ccc2c(c1)oc(=O)n2CCN1CCOCC1 | > 100 µM (inactive) | > 100 µM (inactive) | > 100 µM (inactive) | – | > 100 µM (inactive) | > 100 µM (inactive) | > 100 µM (inactive) | > 100 µM (inactive) | – | – | > 100 µM (inactive) | > 100 µM (inactive) | > 100 µM (inactive) | > 100 µM (inactive) | > 100 µM (inactive) | – | > 100 µM (inactive) | > 100 µM (inactive) | > 100 µM (inactive) | – |
| CC(C)CC1CC2C(=O)N(c3ccccc3)C(=O)C2c2[nH]c3ccccc3c21 (centres undefined) | 16 µM (inactive) | 15.3 µM (inactive) | 18.8 µM (inactive) | 18.6 µM (inactive) | 17.7 µM (inactive) | 16.8 µM (inactive) | 28.2 µM (inactive) | – | > 45.1 µM (inactive) | 20.9 µM (inactive) | – | 29.2 µM (inactive) | > 56.2 µM (inactive) | 27 µM (inactive) | 40.9 µM (inactive) | 26.4 µM (inactive) | 24.5 µM (inactive) | 20.7 µM (inactive) | > 36.3 µM (inactive) | 17.4 µM (inactive) |
| CC1(C)C(=O)C(O)=CC2C1=CCC1C2(C)C(=O)CC2(C)C(C(C)(O)C(=O)CC(O)C(C)(C)O)C(O)CC12C (centres undefined) | 3.01 µM (inactive) | 3.17 µM (inactive) | 4.63 µM (inactive) | 2.38 µM (inactive) | 2.64 µM (inactive) | 2.5 µM (inactive) | 3.54 µM (inactive) | – | 10.9 µM (inactive) | 2.71 µM (inactive) | – | 3.4 µM (inactive) | 3.11 µM (inactive) | 2.69 µM (inactive) | 3.13 µM (inactive) | 2.02 µM (inactive) | 2.86 µM (inactive) | 4.67 µM (inactive) | 2 µM (inactive) | 3.35 µM (inactive) |
| CCOC(=O)Nc1nn(C)/c(=N/Cc2ccccc2)s1 | > 100 µM (inactive) | > 100 µM (inactive) | > 100 µM (inactive) | > 100 µM (inactive) | > 100 µM (inactive) | > 100 µM (inactive) | – | > 100 µM (inactive) | – | 86.3 µM (inactive) | – | > 100 µM (inactive) | – | > 100 µM (inactive) | > 100 µM (inactive) | 33.4 µM (inactive) | – | > 100 µM (inactive) | > 100 µM (inactive) | – |
| C=Cc1ccccc1C1(O)C=CC(OC)(OC)C=C1 | 2.94 µM (inactive) | 3.4 µM (inactive) | 6.31 µM (inactive) | – | 13.4 µM (inactive) | – | 5.96 µM (inactive) | – | 4.46 µM (inactive) | 7.26 µM (inactive) | 4.81 µM (inactive) | 6.41 µM (inactive) | 9.62 µM (inactive) | 6.89 µM (inactive) | 15.8 µM (inactive) | 7.24 µM (inactive) | 30.5 µM (inactive) | 17.8 µM (inactive) | 23.2 µM (inactive) | 18.5 µM (inactive) |
| COc1ccc(-c2nc3ncccn3c2-c2ccc(SC)cc2)cc1 | 2.28 µM (inactive) | 1.73 µM (inactive) | 5.64 µM (inactive) | 7.18 µM (inactive) | 2.04 µM (inactive) | 2.14 µM (inactive) | 1.48 µM (inactive) | 0.237 µM (active) | 3.3 µM (inactive) | 0.23 µM (active) | 1.46 µM (inactive) | 2.48 µM (inactive) | 0.418 µM (active) | 16.9 µM (inactive) | 1.19 µM (inactive) | 4.46 µM (inactive) | – | 0.989 µM (active) | – | – |
| Cc1c(C(=O)/C=C/C=C/c2ccccc2)[n+]([O-])c2ccccc2[n+]1[O-] | 34 µM (inactive) | 26.1 µM (inactive) | 25.3 µM (inactive) | 18 µM (inactive) | 26.3 µM (inactive) | 31.1 µM (inactive) | 19.8 µM (inactive) | – | 17.5 µM (inactive) | 15 µM (inactive) | – | > 10 µM (inactive) | 29.5 µM (inactive) | 18.9 µM (inactive) | 35.5 µM (inactive) | 38.4 µM (inactive) | 64.3 µM (inactive) | 29.2 µM (inactive) | 51.8 µM (inactive) | 18.9 µM (inactive) |
| COc1cccc2c1C(=O)c1c(O)c3c(c(O)c1C2=O)C[C@@](O)(C(C)=O)C[C@@H]3OC1OC(C)C(O)C(N)C1Br (some centres undefined) | 0.00414 µM (active) | 0.00971 µM (active) | 0.0147 µM (active) | 0.0486 µM (active) | 0.266 µM (active) | 0.0208 µM (active) | 0.0681 µM (active) | 0.208 µM (active) | 0.027 µM (active) | 0.0652 µM (active) | – | 0.0156 µM (active) | 0.101 µM (active) | 0.318 µM (active) | 0.0412 µM (active) | 0.0953 µM (active) | 0.0165 µM (active) | 0.0442 µM (active) | 0.133 µM (active) | 0.111 µM (active) |
| O=C1C=C2CC[C@H]3[C@@H]4CC[C@H](Oc5c6ccccc6nc6ccccc56)[C@H]4CC[C@@H]3[C@H]2CC1 | 18.5 µM (inactive) | 12.2 µM (inactive) | 57.1 µM (inactive) | 13.3 µM (inactive) | 31.9 µM (inactive) | 27.8 µM (inactive) | 61.9 µM (inactive) | 21.4 µM (inactive) | 27.6 µM (inactive) | – | 20.4 µM (inactive) | – | 84.9 µM (inactive) | 48.9 µM (inactive) | > 100 µM (inactive) | – | 60.7 µM (inactive) | 52.4 µM (inactive) | – | – |
| COc1ccc(C2=C(OC(C)=O)c3cccn3-c3ccc(Cl)cc3S2)cc1 | 3.43 µM (inactive) | 1.59 µM (inactive) | 3.97 µM (inactive) | 1.3 µM (inactive) | 6.28 µM (inactive) | 5.37 µM (inactive) | 5.07 µM (inactive) | 2.13 µM (inactive) | 4.52 µM (inactive) | – | – | 2.37 µM (inactive) | 7.55 µM (inactive) | 4.75 µM (inactive) | – | – | – | 3.05 µM (inactive) | – | 5.43 µM (inactive) |
| O=C1Nc2ccc(S(=O)(=O)O)cc2/C1=N/Nc1ccccc1[N+](=O)[O-] | – | – | > 100 µM (inactive) | > 100 µM (inactive) | > 100 µM (inactive) | > 100 µM (inactive) | > 100 µM (inactive) | > 100 µM (inactive) | > 100 µM (inactive) | > 100 µM (inactive) | > 100 µM (inactive) | > 100 µM (inactive) | > 100 µM (inactive) | > 100 µM (inactive) | > 100 µM (inactive) | > 100 µM (inactive) | > 100 µM (inactive) | > 100 µM (inactive) | 70.1 µM (inactive) | – |
